Legend:
rat hepatocytes = assay: In vitro metabolic stability in rat hepatocytes; assay type: in vitro ADME; details: 1 μM test compound, calculated from half-life
Method: Investigation of In Vitro Metabolic Stability in Rat Hepatocytes (Including Calculation of Hepatic In Vivo Blood Clearance (CL))
Hepatocytes from Han Wistar rats were isolated via a 2-step perfusion method. After perfusion, the liver was carefully removed from the rat: the liver capsule was opened and the hepatocytes were gently shaken out into a Petri dish with ice-cold WME. The resulting cell suspension was filtered through sterile gaze in 50 ml falcon tubes and centrifuged at 50×g for 3 min at room temperature.
The cell pellet was resuspended in 30 ml WME and centrifuged through a Percoll® gradient for 2 times at 100×g. The hepatocytes were washed again with Williams' medium E (WME) and resuspended in medium containing 5% FCS. Cell viability was determined by trypan blue exclusion.
For the metabolic stability assay liver cells were distributed in WME containing 5% FCS to glass vials at a density of 1.0×10^6 vital cells/m. The test compound was added to a final concentration of 1 μM. During incubation, the hepatocyte suspensions were continuously shaken and aliquots were taken at 2, 8, 16, 30, 45 and 90 min, to which equal volumes of cold methanol were immediately added. Samples were frozen at −20° C. over night, after subsequently centrifuged for 15 minutes at 3000 rpm and the supernatant was analyzed with an Agilent 1200 HPLC-system with LCMS/MS detection.
The half-life of a test compound was determined from the concentration-time plot. From the half-life the intrinsic clearances were calculated. Together with the additional parameters liver blood flow, amount of liver cells in vivo and in vitro. The hepatic in vivo blood clearance (CL) and the maximal oral bioavailability (Fmax) was calculated. The following parameter values were used: Liver blood flow—4.2 L/h/kg rat; specific liver weight—32 g/kg rat body weight; liver cells in vivo—1.1×10^8 cells/g liver, liver cells in vitro—0.5×10^6/ml.

human kinase Mps-1 = biological target: T1, human kinase Mps-1 (Homo sapiens, UniProt P33981); assay: Mps-1 Kinase Assay (TR-FRET); assay type: biochemical; details: 10 μM ATP
T1 construct: N-terminally GST-tagged human full length recombinant Mps-1 kinase; purchased Invitrogen, Karslruhe, Germany PV4071
T1 sequence (P33981 1-857): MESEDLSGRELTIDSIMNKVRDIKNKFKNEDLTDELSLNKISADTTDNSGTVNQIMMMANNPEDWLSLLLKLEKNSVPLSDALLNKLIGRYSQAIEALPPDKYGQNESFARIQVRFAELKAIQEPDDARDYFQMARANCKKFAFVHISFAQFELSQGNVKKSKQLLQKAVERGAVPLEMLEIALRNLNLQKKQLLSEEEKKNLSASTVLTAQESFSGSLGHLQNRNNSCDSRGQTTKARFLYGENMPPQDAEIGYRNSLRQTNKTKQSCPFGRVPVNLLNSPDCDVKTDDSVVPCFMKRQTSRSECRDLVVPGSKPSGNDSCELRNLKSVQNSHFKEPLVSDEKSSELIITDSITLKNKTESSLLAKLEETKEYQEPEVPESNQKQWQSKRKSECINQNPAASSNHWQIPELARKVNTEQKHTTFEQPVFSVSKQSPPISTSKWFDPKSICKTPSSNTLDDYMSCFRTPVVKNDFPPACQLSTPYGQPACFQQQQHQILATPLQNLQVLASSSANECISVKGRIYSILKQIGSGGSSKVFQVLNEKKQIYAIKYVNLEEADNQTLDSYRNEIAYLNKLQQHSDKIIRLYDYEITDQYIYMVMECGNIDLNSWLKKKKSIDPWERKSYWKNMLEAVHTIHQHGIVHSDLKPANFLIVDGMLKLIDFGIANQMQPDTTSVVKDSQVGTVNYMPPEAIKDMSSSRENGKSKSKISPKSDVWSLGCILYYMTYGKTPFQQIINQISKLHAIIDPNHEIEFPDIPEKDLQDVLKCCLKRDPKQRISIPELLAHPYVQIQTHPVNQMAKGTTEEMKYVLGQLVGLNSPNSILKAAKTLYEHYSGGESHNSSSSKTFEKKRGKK
Method: The human kinase Mps-1 phosphorylates a biotinylated substrate peptide. Detection of the phosphorylated product is achieved by time-resolved fluorescence resonance energy transfer (TR-FRET) from Europium-labelled anti-phospho-Serine/Threonine antibody as donor to streptavidin Labelled with cross-linked allophycocyanin (SA-XLent) as acceptor. Compounds are tested for their inhibition of the kinase activity.
N-terminally GST-tagged human full length recombinant Mps-1 kinase (purchased from Invitrogen, Karslruhe, Germany, cat. no PV4071) was used. As substrate for the kinase reaction a biotinylated peptide of the amino-acid sequence […] (C-terminus in amide form, purchased from Biosynthan GmbH, Berlin) was used.
The concentration of Mps-1 in the assay was adjusted to the activity of the enzyme lot and was chosen appropriate to have the assay in the linear range, typical enzyme concentrations were in the range of about 1 nM (final conc. in the 5 μl assay volume).
The resulting mixture was incubated 1 h at 22° C. to allow the binding of the phosphorylated peptide to the anti-phospho(Ser/Thr)-Europium-antibody. Subsequently the amount of phosphorylated substrate was evaluated by measurement of the resonance energy transfer from the Europium-labelled anti-phospho(Ser/Thr) antibody to the Streptavidin-XLent.

| SMILES | Fmax (maximal oral bioavailability) (rat hepatocytes) [%] | IC50 (human kinase Mps-1) [pM] |
| --- | --- | --- |
| Cc1cc(-c2cnc3c(NCCC(F)(F)F)cc(C(C)(O)c4cccc(F)c4O)nn23)ccc1C(=O)NC1CC1 (racemic) [Compound A4, (RS)—N-Cyclopropyl-4-{6-[1-(3-fluoro-2-hydroxyphenyl)-1-hydroxyethyl]-8-[(3,3,3-trifluoropropyl)amino]imidazo[1,2-b]pyridazin-3-yl}-2-methylbenzamide] | 36 | 300 |
| COc1ccc(Cc2cc(NCCC(F)(F)F)c3ncc(-c4ccc(C(=O)NC5CC5)c(C)c4)n3n2)cc1 [Comparative Example 5, N-Cyclopropyl-4-{6-(4-methoxybenzyl)-8-[(3,3,3-trifluoropropyl)amino]imidazo[1,2-b]pyridazin-3-yl}-2-methylbenzamide, reference compound] | 35 | – |
| COc1cccc(C(=O)c2cc(NCCC(F)(F)F)c3ncc(-c4ccc(C(=O)NC5CC5)c(C)c4)n3n2)c1 [Compound A7, N-Cyclopropyl-4-{6-(3-methoxybenzoyl)-8-[(3,3,3-trifluoropropyl)amino]imidazo[1,2-b]pyridazin-3-yl}-2-methylbenzamide] | 26 | 500 |
| COc1cccc(Cc2cc(NCCC(F)(F)F)c3ncc(-c4ccc(C(=O)NC5CC5)c(C)c4)n3n2)c1 [Comparative Example 4, N-cyclopropyl-4-{6-(3-methoxybenzyl)-8-[(3,3,3-trifluoropropyl)amino]imidazo[1,2-b]pyridazin-3-yl}-2-methylbenzamide, reference compound] | 18 | – |
| Cc1cc(-c2cnc3c(NCCC(F)(F)F)cc(C4(c5cc(F)ccc5O)CC4)nn23)ccc1C(=O)NC1CC1 [Compound A23, N-cyclopropyl-4-{6-[1-(5-fluoro-2-hydroxyphenyl)cyclopropyl]-8-[(3,3,3-trifluoropropyl)amino]imidazo[1,2-b]pyridazin-3-yl}-2-methylbenzamide] | 40 | – |
| Cc1cc(-c2cnc3c(NCCC(F)(F)F)cc(Cc4cccc(F)c4)nn23)ccc1C(=O)NC1CC1 [Comparative Example 3, N-Cyclopropyl-4-{6-(3-fluorobenzyl)-8-[(3,3,3-trifluoropropyl)amino]imidazo[1,2-b]pyridazin-3-yl}-2-methylbenzamide, reference compound] | 43 | – |
| COc1ccc(Cc2cc(NCCC(F)(F)F)c3ncc(-c4ccc(C(=O)NC5CC5)c(C)c4)n3n2)cc1F [Comparative Example 1, N-Cyclopropyl-4-{6-(3-fluoro-4-methoxybenzyl)-8-[(3,3,3-trifluoropropyl)amino]imidazo[1,2-b]pyridazin-3-yl}-2-methylbenzamide, reference compound] | 29 | – |
| Cc1cc(-c2cnc3c(NCCC(F)(F)F)cc(C(F)(F)c4cccc(F)c4)nn23)ccc1C(=O)NC1CC1 [Compound A6, N-Cyclopropyl-4-{6-[difluoro(3-fluorophenyl)methyl]-8-[(3,3,3-trifluoropropyl)amino]imidazo[1,2-b]pyridazin-3-yl}-2-methylbenzamide] | 70 | – |
| Cc1cc(-c2cnc3c(NCCC(F)(F)F)cc(Cc4cccc(F)c4O)nn23)ccc1C(=O)NC1CC1 [Comparative Example 2, N-Cyclopropyl-4-{6-(3-fluoro-2-hydroxybenzyl)-8-[(3,3,3-trifluoropropyl)amino]imidazo[1,2-b]pyridazin-3-yl}-2-methylbenzamide, reference compound] | 3 | – |
| C=C(c1ccc(OC)c(F)c1)c1cc(NCCC(F)(F)F)c2ncc(-c3ccc(C(=O)NC4CC4)c(C)c3)n2n1 [Compound A1, N-Cyclopropyl-4-{6-[1-(3-fluoro-4-methoxyphenyl)ethenyl]-8-[(3,3,3-trifluoropropyl)amino]imidazo[1,2-b]pyridazin-3-yl}-2-methylbenzamide] | 39 | – |

The remaining lines, values ahead:

| Fmax (maximal oral bioavailability) (rat hepatocytes) [%] | IC50 (human kinase Mps-1) [pM] | SMILES |
| --- | --- | --- |
| 52 | 900 | Cc1cc(-c2cnc3c(NCCC(F)(F)F)cc(C4(c5cccc(F)c5)CC4)nn23)ccc1C(=O)NC1CC1 [Compound A25, N-cyclopropyl-4-{6-[1-(3-fluorophenyl)cyclopropyl]-8-[(3,3,3-trifluoropropyl)amino]imidazo[1,2-b]pyridazin-3-yl}-2-methylbenzamide] |
| 48 | 500 | C=C(c1ccc(OC)cc1)c1cc(NCCC(F)(F)F)c2ncc(-c3ccc(C(=O)NC4CC4)c(C)c3)n2n1 [Compound A10, N-Cyclopropyl-4-{6-[1-(4-methoxyphenyl)vinyl]-8-[(3,3,3-trifluoropropyl)amino]imidazo[1,2-b]pyridazin-3-yl}-2-methylbenzamide] |
| 75 | – | COc1ccc(C(=O)c2cc(NCCC(F)(F)F)c3ncc(-c4ccc(C(=O)NC5CC5)c(C)c4)n3n2)cc1F [Compound A13, N-Cyclopropyl-4-{6-(3-fluoro-4-methoxybenzoyl)-8-[(3,3,3-trifluoropropyl)amino]imidazo[1,2-b]pyridazin-3-yl}-2-methylbenzamide] |
| 50 | – | Cc1cc(-c2cnc3c(NCCC(F)(F)F)cc(C4(c5cccc(F)c5F)CC4)nn23)ccc1C(=O)NC1CC1 [Compound A17, N-Cyclopropyl-4-{6-[1-(2,3-difluorophenyl)cyclopropyl]-8-[(3,3,3-trifluoropropyl)amino]imidazo[1,2-b]pyridazin-3-yl}-2-methylbenzamide] |
| – | 600 | C=C(c1cc(NCCC(F)(F)F)c2ncc(-c3ccc(C(=O)NC4CC4)c(C)c3)n2n1)c1cc(F)ccc1F [Compound A19, N-Cyclopropyl-4-{6-[1-(2,5-difluorophenyl)vinyl]-8-[(3,3,3-trifluoropropyl)amino]imidazo[1,2-b]pyridazin-3-yl}-2-methylbenzamide] |
| 56 | – | COc1ccc(C(F)(F)c2cc(NCCC(F)(F)F)c3ncc(-c4ccc(C(=O)NC5CC5)c(C)c4)n3n2)cc1 [Compound A16, N-Cyclopropyl-4-{6-[difluoro(4-methoxyphenyl)methyl]-8-[(3,3,3-trifluoropropyl)amino]imidazo[1,2-b]pyridazin-3-yl}-2-methylbenzamide] |
| – | 800 | Cc1cc(-c2cnc3c(NCCC(F)(F)F)cc(C4(c5cc(F)ccc5F)CC4)nn23)ccc1C(=O)NC1CC1 [Compound A20, N-Cyclopropyl-4-{6-[1-(2,5-difluorophenyl)cyclopropyl]-8-[(3,3,3-trifluoropropyl)amino]imidazo[1,2-b]pyridazin-3-yl}-2-methylbenzamide] |
| – | 500 | Cc1cc(-c2cnc3c(NCCC(F)(F)F)cc(C(F)(F)c4cc(F)ccc4F)nn23)ccc1C(=O)NC1CC1 [Compound A21, N-Cyclopropyl-4-{6-[(2,5-difluorophenyl)(difluoro)methyl]-8-[(3,3,3-trifluoropropyl)amino]imidazo[1,2-b]pyridazin-3-yl}-2-methylbenzamide] |

Source: US20160175306A1, “COMBINATION OF A IMIDAZOPYRIDAZINE DERIVATIVE AND A MITOTIC AGENT FOR THE TREATMENT OF CANCER” (BAYER PHARMA AKTIENGESELLSCHAFT, priority 2013, published 2016)
